Assay results taken from paper PMC10552892, “Ebselen oxide and derivatives are new allosteric HER2 inhibitors for HER2‐positive cancers” (Molecular Oncology, 2023).

Experiments:
[1] = target: T1, HER2 in heterodimers with EGFR/HER1 (Homo sapiens, UniProt P04626); experiment: Ligand-dependent HER2 activation in HBMECs upon EGF stimulation (western blot); format: cell-based; settings: 10 μM, 50 ng/ml EGF 5 min
T1 construct: in noncancer cells expressing normal levels of HER2; endogenous in cells; host or cells: HBMEC
T1 sequence (P04626 23-1255, one chain of several): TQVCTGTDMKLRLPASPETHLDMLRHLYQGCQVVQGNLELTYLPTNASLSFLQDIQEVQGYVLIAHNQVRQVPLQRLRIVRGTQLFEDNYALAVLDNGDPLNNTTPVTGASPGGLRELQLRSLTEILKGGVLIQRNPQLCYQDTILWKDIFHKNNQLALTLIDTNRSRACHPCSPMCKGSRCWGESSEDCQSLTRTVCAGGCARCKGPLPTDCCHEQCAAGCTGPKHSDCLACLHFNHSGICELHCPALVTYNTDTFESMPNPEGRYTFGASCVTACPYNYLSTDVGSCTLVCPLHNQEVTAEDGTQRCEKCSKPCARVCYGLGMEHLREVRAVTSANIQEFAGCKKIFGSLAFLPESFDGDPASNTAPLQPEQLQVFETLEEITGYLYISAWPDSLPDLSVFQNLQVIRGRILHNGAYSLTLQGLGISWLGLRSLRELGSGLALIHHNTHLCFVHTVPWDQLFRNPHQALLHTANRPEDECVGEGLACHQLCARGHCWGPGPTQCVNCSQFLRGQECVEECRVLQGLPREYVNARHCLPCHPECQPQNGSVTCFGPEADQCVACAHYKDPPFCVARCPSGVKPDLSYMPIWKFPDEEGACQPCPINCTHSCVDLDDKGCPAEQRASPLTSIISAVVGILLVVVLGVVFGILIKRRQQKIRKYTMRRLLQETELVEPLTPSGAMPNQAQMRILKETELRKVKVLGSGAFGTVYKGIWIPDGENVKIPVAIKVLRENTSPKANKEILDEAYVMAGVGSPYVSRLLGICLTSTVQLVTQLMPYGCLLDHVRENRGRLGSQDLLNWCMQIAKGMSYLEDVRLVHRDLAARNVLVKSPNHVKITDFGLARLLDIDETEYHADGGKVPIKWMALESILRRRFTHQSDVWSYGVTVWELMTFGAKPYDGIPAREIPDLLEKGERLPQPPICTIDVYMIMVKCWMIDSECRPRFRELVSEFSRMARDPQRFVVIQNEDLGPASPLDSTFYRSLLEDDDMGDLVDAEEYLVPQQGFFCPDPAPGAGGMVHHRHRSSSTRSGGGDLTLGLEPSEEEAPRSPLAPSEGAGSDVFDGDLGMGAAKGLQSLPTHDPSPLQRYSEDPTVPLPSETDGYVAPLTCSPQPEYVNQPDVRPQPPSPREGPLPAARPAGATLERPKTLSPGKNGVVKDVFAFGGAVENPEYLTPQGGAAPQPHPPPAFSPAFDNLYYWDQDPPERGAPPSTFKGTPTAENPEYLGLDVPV

[2] = system: HBMECs transfected with pRK5 empty vector; experiment: Proliferation of HBMECs transfected with pRK5 empty vector (Incucyte); settings: 5 μM, Incucyte 5 days
Procedure: (§1) 25.10^3 cells/96‐well transfected HBMECs or 9.10^3 cancer cells were seeded and monitored with an Incucyte S3 imaging system (Sartorius, Goettingen, Germany) using 10× objective every 2 h during 5 days. Confluency analyses were performed using the dedicated Incucyte analysis system.
(§2) Proliferation was assessed by Incucyte during 5 days.
(§3) Representative quantification of the proliferation (B) is shown where data are mean ± sem (n=8-12).
vehicle, 5-10 µM Ebselen oxide or 5 µM AG1478.

[3] = target: T2, JMHER2/FERME interaction (biot-JMHER2 peptide and GST-FERME, N-terminal FERM domain of ezrin) (Homo sapiens, UniProt P04626); experiment: AlphaScreen competition of HER2 juxtamembrane peptide / ezrin FERM domain interaction; format: binding; settings: AlphaScreen, 20 h
T2 construct: purchased Proteogenix
Procedure: Biotinylated peptide derived from HER2 cytosolic juxtamembrane region (JMHER2, […] ) has been synthesized by Proteogenix (Schiltigheim, France). The binding reaction was described previously. Briefly, white 384‐well Optiplates (PerkinElmer, Whalham, MA, USA) were used to prepare GST‐FERME and biotinylated peptide in a binding buffer (PBS, pH 7.4, 5 mM MgCl2, and 0.02% CHAPS). GST‐FERME was incubated with biotinylated‐HER2 for 30 min at room temperature. AlphaScreen® Streptavidin Donor beads (20 μg·mL^−1) and Glutathione AlphaLISA® Acceptor Beads (20 μg·mL^−1) were added to the wells for overnight incubation in the dark and at room temperature. Light signal was detected with the EnVision® multilabel plate reader (PerkinElmer).
Ebselen came out as an interesting hit. Ebselen is a synthetic organoselenium compound with the anti‐inflammatory and antioxidant property that has been evaluated in clinical trials for ischemic stroke and acute hearing loss. However, in vivo, ebselen rapidly reacts with peroxynitrite to form ebselen oxide. […] In addition, using surface plasmon resonance (SPR), we confirmed that both compounds could directly bind to JMHER2 (Fig. 1E,F). […] The slight decrease in HER2 expression was not significant. To examine whether HER2 inhibition by ebselen oxide was dependent on JMHER2/FERME interaction, we transfected HBMEC cells with a previously described glycoprotein D‐tagged HER2 form mutated on the critical amino acids involved in ERM binding (gD‐HER2‐EBM*).

BT474 = experiment: Incucyte proliferation, single agents and combinations, BT474; format: cell-based; settings: Homo sapiens, BT-474, 96 h; read-out: Reduction/inhibition of cell proliferation
Procedure: (A–C) Proliferation curves of HER2‐positive (SKBR3, A; BT474, B; NCI‐N87, C) cancer cell lines treated or not with ebselen oxide (10 μM), lapatinib (10–1000 nM), or combination of these agents, as indicated. Proliferation was assessed overtime by Incucyte during 4 days. Data are mean ± SD (n = 8–12) of a representative experiment out of 4 (A), 3 (B), or 2 (C) independent experiments. […] Proliferation was assessed by Incucyte during 4 days. […] Scale bars are […].

HER2 (pY1248) in NCI-N87 = target: T3, HER2 (pY1248) in NCI-N87 (Homo sapiens, UniProt P04626); experiment: HER2 activation in NCI-N87 gastric cancer cells, western blot; format: cell-based
T3 construct: host or cells: NCI-N87
T3 sequence (P04626 23-1255): as the sequence (P04626 23-1255, one chain of several) above
Procedure: (A-C) HER2-positive […] (SKBR3, A; NCI-N87, B; BT474, C) treated or not with Ebselen
indicated, were analyzed by western blot to evaluate HER2 activation status using antibodies directed
Proliferation was assessed by Incucyte during 4 days.

[4] = target: T4, HER2 (pY1248) in MDA-MB-231 (Homo sapiens, UniProt P04626); experiment: HER2 activation in MDA-MB-231 cells, western/dot blot; format: cell-based; settings: MDA-MB-231, low HER2 expression
T4 construct: host or cells: MDA-MB-231
T4 sequence (P04626 23-1255): as the sequence (P04626 23-1255, one chain of several) above

[5] = system: HBMECs overexpressing V842I HER2; experiment: Proliferation of HBMECs overexpressing V842I HER2 (Incucyte, MTT)
Procedure: Cell medium was removed and replaced with fresh culture medium. 3‐(4,5‐dimethylthiazol‐2‐yl)‐2,5‐diphenyltetrazolium bromide (MTT reagent) was added at a final concentration of 1.2 mM for 2–4 h at 37 °C. Produced formazan was solubilized with DMSO and measured by 540 nm absorbance reading.
as §1
(D–F) Proliferation was assessed by Incucyte during 5 days. Data are mean ± SEM of a representative experiment out of two independent experiments. Two‐way ANOVA followed by Bonferroni's multiple comparison test, ***P < 0.001, ****P < 0.0001.
(A-B) HBMECs transfected with empty vector (pRK5) or vectors encoding gD-HER2 WT, the truncated gD-
as §2, §3
ANOVA followed byBonferroni’s multiple comparison test, *** P<0.001, **** P<0.0001.
vehicle, 5-10 µM Ebselen oxide or 5 µM AG1478. Proliferation was assessed by MTT assay during 3 days.
Data are mean ± sem (n=3). Two-way ANOVA followed by Bonferroni’s multiple comparison test, * P<0.05 **

HER2 (pY1248) in SKOV3 = target: T5, HER2 (pY1248) in SKOV3 (Homo sapiens, UniProt P04626); experiment: HER2 activation in SKOV3 ovarian cancer cells, western blot; format: cell-based; settings: ebselen oxide 0–10 μM 24 h, AG1478 5 μM
T5 construct: host or cells: SKOV3
T5 sequence (P04626 23-1255): as the sequence (P04626 23-1255, one chain of several) above
Procedure: Human bone marrow endothelial cells (HBMECs) kindly provided by Dr. B. Weksler (Weill Medical College of Cornell University, NY) were cultured as described previously. The human breast cancer cell lines [SKBR3 (RRID:CVCL_0033), BT474 (RRID:CVCL_0179), and MDA‐MB‐231 (RRID:CVCL_0062)], the human gastric [NCI‐87 (RRID:CVCL_1603)] and ovarian [SKOV3 (RRID:CVCL_0532)] cancer cell lines were obtained from the American Type Culture Collection (Manassas, VA) and were maintained in DMEM containing 10% FBS. All cell lines were cultured under 5% CO2 at 37 °C. HBMECs were transfected using Amaxa Inc nucleofector system (Kit V and U015 program). […]
Fig. 3 Ebselen oxide inhibits HER2 activation and HER2‐dependent proliferation in gastric and ovarian HER2^+ cancer cells. (A) HER2‐positive NCI‐87 gastric cancer cells were treated with ebselen oxide (0–20 μM) for 24 h, lysed, and analyzed by western blot using anti‐pY1248‐HER2, HER2, and β‐tubulin antibodies. […] (B) HER2‐positive SKOV3 ovarian cancer cells were treated with ebselen oxide (0–10 μM) for 24 h, lysed, and analyzed by western blot using anti‐pY1248‐HER2, HER2, and ezrin antibodies. […] (C, D) Proliferation curves of NCI‐N87 gastric (C) or SKOV3 ovarian (D) cancer cells treated with vehicle or 7–10 μM ebselen oxide measured by MTT assay. […]

[6] = target: T6, HER2 in heterodimers with HER3 (Homo sapiens, UniProt P04626); experiment: Ligand-dependent HER2 activation in HBMECs upon HRG stimulation (western blot); format: cell-based; settings: 10 μM, 100 ng/ml Heregulin-1β 5 min
T6 construct: in noncancer cells expressing normal levels of HER2; endogenous in cells; host or cells: HBMEC

With `O=C1c2ccccc2[Se](=O)N1c1ccccc1` (stereo not drawn) [Ebselen oxide, ebselen oxide] as the molecule, how does the “Physiological activation of HER2 in heterodimers and downstream AKT and ERK activation upon EGF” value [1] read?
The value was “did not alter”.

What about the “Effect on proliferation of cells transfected with pRK5 empty vector” value [2] of the same molecule?
Its value is “did not affect”.

And the IC50 [3]?
Its IC50 is 634 nM.

And the EC50 ([3]; read-out: EC50, μM (inhibition of HER2-FERME interaction))?
The EC50 was 0.634 µM.

What about the inhibition at 10 µM (BT474) of the same molecule?
The inhibition at 10 µM was 30%.

What about the “Effect on HER2 activation” value (HER2 (pY1248) in NCI-N87; ebselen oxide 0–20 μM 24 h, AG1478 5 μM) of the same molecule?
The value was “strongly blocked”.

And the “Effect on HER2 activation, single agents and combination” value (HER2 (pY1248) in NCI-N87; ebselen oxide 10 μM, lapatinib 10 nM)?
Its value is “partially decreased”.

What about the “Effect on HER2 activation” value [4] of the same molecule?
Its value is “no effect”.

And the “Inhibition of cell proliferation induced by overexpression of V842I HER2” value ([5]; 5 μM, Incucyte 5 days)?
Its value is “almost totally inhibited”.

What about the “Inhibition of proliferation compared with AG1478 (5 μM)” value ([5]; MTT 3 days, V842I) of the same molecule?
The value was “similar”.

What about the “Effect on HER2 activation” value (HER2 (pY1248) in SKOV3) of the same molecule?
Its value is “strongly blocked”.

What about the “Physiological activation of HER2 in heterodimers and downstream AKT and ERK activation upon HRG” value [6] of the same molecule?
Its value is “did not alter”.
